{"source": "patent US20250281507A1", "about": "“METHODS OF TREATING NEPHROTIC SYNDROME” (The Research Institute at Nationwide Children's Hospital, priority 2021, published 2025)", "key": {"[1]": {"test_system": "children with NS", "assay": "Serum albumin before and after addition of pioglitazone", "format": "in vivo, human", "conditions": "for % S Alb increase (0-1 mo) / % S Alb increase (5-7 mo): vs 0-1 mo pre-PIO; for serum albumin increase, range / mean serum albumin: Responders; for mean serum albumin: pre 2.5 g/dL", "from_the_text": "(§1) In the following clinical studies, the efficacy and safety of adding pioglitazone to reduce proteinuria in children with NS was examined. All children with NS identified worldwide to have been treated with pioglitazone were included, with no patients excluded. Each patient had pioglitazone added to their other NS medications at the discretion of their treating pediatric nephrologist. All patient records were reviewed in a de-identified manner, with prior ethics committee approval at each institution. Data were analyzed based on defined time periods before and after the addition of pioglitazone. Patients were defined as having responded to pioglitazone (i.e., Responders) if their urine protein to creatinine ratio (UPCR, mg/mg) decreased from the period 0-1 month pre-pioglitazone to the period 0-1 month post-pioglitazone. Glomerular filtration rate estimation (eGFR) in patients <18 years was calculated using the revised Schwartz equation. In patients >18 years, eGFR was calculated as the mean of the revised Schwartz and CKD-EPI creatinine equations. Quantitative data, such as patient age, duration of NS, pioglitazone dosage, and outcomes of UPCR, TIS, and serum albumin, were summarized as means (standard errors of mean), while categorical data such as renal survival status were summarized as frequency (percent). Due to a small sample size, Responders and Non-responders were compared using Wilcoxon Rank Sum tests on quantitative variables and Fisher's exact tests on categorical variables. For both Responders and Non-responders, pre-pioglitazone to post-pioglitazone initiation changes in UPCR, TIS, and serum albumin levels were analyzed using Wilcoxon Signed Rank tests. Numbers of hospitalizations pre-pioglitazone and post-pioglitazone initiation were analyzed and compared using Poisson distributions. Statistical significance was assessed at both the 0.05 and 0.10 levels. All analyses were conducted using SPSS software ver. 26 (IBM, Armonk, NY, USA)."}, "[2]": {"test_system": "children with NS", "assay": "Hospitalizations, edema, hypoglycemia and side effects on pioglitazone", "format": "in vivo, human", "from_the_text": "as §1"}, "[3]": {"conditions": "Patient 1 (Responder), pre-PIO 2.5"}, "[4]": {"conditions": "Patient 2 (Responder), pre-PIO 2.4"}, "[5]": {"conditions": "Patient 3 (Responder), pre-PIO 1.7"}, "[6]": {"conditions": "Patient 5 (Non-responder), pre-PIO 4.4"}, "[7]": {"conditions": "Patient 6 (Responder), pre-PIO 4.5"}, "[8]": {"conditions": "Patient 7 (Non-responder), pre-PIO 2.9"}, "[9]": {"conditions": "Patient 8 (Responder), pre-PIO 1.2"}, "[10]": {"conditions": "mean of 5 Responders, pre-PIO 2.46"}}, "note": "Where “and” joins values, the source holds several entries; their conditions need not be identical. Identical values can stand only once."}
{"smiles": "CCc1ccc(CCOc2ccc(CC3SC(=O)NC3=O)cc2)nc1", "note": "(centres unmarked) [pioglitazone]", "values": [{"measurement": "Post-PIO S Alb (0-1 mo; g/dL)", "setting": "[1]; [3]", "value": 2.9, "unit": "g/dL"}, {"measurement": "Post-PIO S Alb (5-7 mo; g/dL)", "setting": "[1]; [3]", "value": 3.5, "unit": "g/dL"}, {"measurement": "% S Alb increase (0-1 mo)", "setting": "[1]; Patient 1 (Responder)", "value": 16.0, "unit": "%"}, {"measurement": "% S Alb increase (5-7 mo)", "setting": "[1]; Patient 1 (Responder)", "value": 40.0, "unit": "%"}, {"measurement": "Post-PIO S Alb (0-1 mo; g/dL)", "setting": "[1]; [4]", "value": 3, "unit": "g/dL"}, {"measurement": "Post-PIO S Alb (5-7 mo; g/dL)", "setting": "[1]; [4]", "value": 3.5, "unit": "g/dL"}, {"measurement": "% S Alb increase (0-1 mo)", "setting": "[1]; Patient 2 (Responder)", "value": 25.0, "unit": "%"}, {"measurement": "% S Alb increase (5-7 mo)", "setting": "[1]; Patient 2 (Responder)", "value": 45.8, "unit": "%"}, {"measurement": "Post-PIO S Alb (0-1 mo; g/dL)", "setting": "[1]; [5]", "value": 2.3, "unit": "g/dL"}, {"measurement": "Post-PIO S Alb (5-7 mo; g/dL)", "setting": "[1]; [5]", "value": 3.7, "unit": "g/dL"}, {"measurement": "% S Alb increase (0-1 mo)", "setting": "[1]; Patient 3 (Responder)", "value": 35.3, "unit": "%"}, {"measurement": "% S Alb increase (5-7 mo)", "setting": "[1]; Patient 3 (Responder)", "value": 118, "unit": "%"}, {"measurement": "Post-PIO S Alb (0-1 mo; g/dL)", "setting": "[1]; Patient 4 (Non-responder), pre-PIO 1.6, increase attributed to declining kidney function", "value": 2.7, "unit": "g/dL"}, {"measurement": "% S Alb increase (0-1 mo)", "setting": "[1]; Patient 4 (Non-responder)", "value": 68.8, "unit": "%"}, {"measurement": "Post-PIO S Alb (0-1 mo; g/dL)", "setting": "[1]; [6]", "value": 4.1, "unit": "g/dL"}, {"measurement": "Post-PIO S Alb (5-7 mo; g/dL)", "setting": "[1]; [6]", "value": 4.3, "unit": "g/dL"}, {"measurement": "% S Alb increase (0-1 mo)", "setting": "[1]; Patient 5 (Non-responder)", "value": "−6.82", "unit": "%"}, {"measurement": "% S Alb increase (5-7 mo)", "setting": "[1]; Patient 5 (Non-responder)", "value": "−2.27", "unit": "%"}, {"measurement": "Post-PIO S Alb (0-1 mo; g/dL)", "setting": "[1]; [7]", "value": 4.1, "unit": "g/dL"}, {"measurement": "Post-PIO S Alb (5-7 mo; g/dL)", "setting": "[1]; [7]", "value": 4.4, "unit": "g/dL"}, {"measurement": "% S Alb increase (0-1 mo)", "setting": "[1]; Patient 6 (Responder)", "value": "−8.89", "unit": "%"}, {"measurement": "% S Alb increase (5-7 mo)", "setting": "[1]; Patient 6 (Responder)", "value": "−2.22", "unit": "%"}, {"measurement": "Post-PIO S Alb (0-1 mo; g/dL)", "setting": "[1]; [8]", "value": 2.8, "unit": "g/dL"}, {"measurement": "Post-PIO S Alb (5-7 mo; g/dL)", "setting": "[1]; [8]", "value": 3.1, "unit": "g/dL"}, {"measurement": "% S Alb increase (0-1 mo)", "setting": "[1]; Patient 7 (Non-responder)", "value": "−3.45", "unit": "%"}, {"measurement": "% S Alb increase (5-7 mo)", "setting": "[1]; Patient 7 (Non-responder)", "value": 6.90, "unit": "%"}, {"measurement": "Post-PIO S Alb (0-1 mo; g/dL)", "setting": "[1]; [9]", "value": 3.1, "unit": "g/dL"}, {"measurement": "Post-PIO S Alb (5-7 mo; g/dL)", "setting": "[1]; [9]", "value": 3.4, "unit": "g/dL"}, {"measurement": "% S Alb increase (0-1 mo)", "setting": "[1]; Patient 8 (Responder)", "value": 158, "unit": "%"}, {"measurement": "% S Alb increase (5-7 mo)", "setting": "[1]; Patient 8 (Responder)", "value": 183, "unit": "%"}, {"measurement": "serum albumin increase, range", "setting": "[1]; 0-1 month post-pioglitazone", "value": "−9-158%"}, {"measurement": "mean serum albumin", "setting": "[1]; 0-1 month post-pioglitazone", "value": 3.1, "unit": "g/dL"}, {"measurement": "serum albumin increase, range", "setting": "[1]; 5-7 months post-pioglitazone", "value": "−2-183%"}, {"measurement": "mean serum albumin", "setting": "[1]; 5-7 months post-pioglitazone", "value": 3.7, "unit": "g/dL"}, {"measurement": "% S Alb increase (0-1 mo), Mean (SEM)", "setting": "[1]; mean of 5 Responders", "value": "45% and 45.2%"}, {"measurement": "% S Alb increase (5-7 mo), Mean (SEM)", "setting": "[1]; mean of 5 Responders", "value": "77% and 76.9%"}, {"measurement": "Post-PIO S Alb (0-1 mo; g/dL), Mean (SEM)", "setting": "[1]; [10]", "value": 3.08, "unit": "g/dL"}, {"measurement": "Post-PIO S Alb (5-7 mo; g/dL), Mean (SEM)", "setting": "[1]; [10]", "value": 3.7, "unit": "g/dL"}, {"measurement": "% S Alb increase (0-1 mo), Mean (SEM)", "setting": "[1]; mean of Non-responders", "value": 19.5, "unit": "%"}, {"measurement": "Post-PIO S Alb (5-7 mo; g/dL), Mean (SEM)", "setting": "[1]; mean of Non-responders (Patient 4 ESRD)", "value": 3.7, "unit": "g/dL"}, {"measurement": "% S Alb increase (5-7 mo), Mean (SEM)", "setting": "[1]; mean of Non-responders (without Patient 4)", "value": 2.31, "unit": "%"}, {"measurement": "Post-PIO S Alb (0-1 mo; g/dL), Mean (SEM)", "setting": "[1]; mean of Non-responders, pre-PIO 2.97", "value": 3.2, "unit": "g/dL"}, {"measurement": "required hospitalizations", "setting": "[2]; 5 Responders, post-pioglitazone, 11 pre-pioglitazone", "value": "none"}, {"measurement": "side effects attributable to pioglitazone", "setting": "[2]; Patient 1, 7-month PIO treatment, 15 then 30 mg QD", "value": "No side effects attributable to pioglitazone were noted"}, {"measurement": "side effects attributable to pioglitazone", "setting": "[2]; Patient 2, 4-month treatment, 15 mg QD", "value": "no side effects attributable to pioglitazone noted"}, {"measurement": "side effects attributable to pioglitazone", "setting": "[2]; Patient 3, 19-month course", "value": "No side effects attributable to pioglitazone were noted"}, {"measurement": "side effects attributable to pioglitazone", "setting": "[2]; Patient 4, 3 weeks of treatment, 7.5 mg QD", "value": "no side effects attributable to pioglitazone were noted"}, {"measurement": "side effects attributable to pioglitazone", "setting": "[2]; Patient 5, 2.5 years, 45 mg QD", "value": "No side effects attributable to pioglitazone were noted"}, {"measurement": "side effects attributable to pioglitazone", "setting": "[2]; Patient 6, 5-year course, 30 mg QD", "value": "No side effects attributable to pioglitazone were noted"}, {"measurement": "side effects (reason for stopping pioglitazone)", "setting": "[2]; Patient 7, 6 months, 15 then 30 mg QD", "value": "concerns of possible association with new-onset bruising, which resolved"}, {"measurement": "side effects attributable to pioglitazone", "setting": "[2]; Patient 8, 30-week course, 30 mg QD", "value": "No side effects attributable to pioglitazone were noted"}, {"measurement": "reductions in hospitalizations for IV albumin infusions and diuresis", "setting": "[2]; Responders", "value": 100, "unit": "%"}, {"measurement": "children with worsening edema after pioglitazone introduction", "setting": "[2]; all 8 patients", "value": 0, "unit": "%"}, {"measurement": "hospitalizations for IV albumin infusions to manage NS-related edema", "setting": "[2]; all 8 patients, 5-7 months post-pioglitazone, 13 in the 5-7 months pre-pioglitazone", "value": 1}, {"measurement": "adverse events attributable to pioglitazone", "setting": "[2]; all patients, collective 136 months of drug exposure", "value": "no patients experienced any adverse events attributable to pioglitazone"}, {"measurement": "pioglitazone-related hypoglycemia", "setting": "[2]; all patients, observation period", "value": "no children with NS were noted to have pioglitazone-related hypoglycemia"}]}
